# Measured values published in ChEMBL document CHEMBL2150898, “Discovery of AM-1638: A Potent and Orally Bioavailable GPR40/FFA1 Full Agonist” (ACS Med Chem Lett, 2012).
# Activity calls are given as the source filed them. The rule behind the calls is not given here.
# Legend:
# [1] = biological target: T1, Free fatty acid receptor 1 (Homo sapiens, UniProt O14842); experiment: Agonist activity at GPR40 expressed in CHO cells after 20 seconds by aequorin bioluminescence assay in presence of 0.1 % human serum; assay type: functional, cell-based
# T1 sequence (O14842 whole entry): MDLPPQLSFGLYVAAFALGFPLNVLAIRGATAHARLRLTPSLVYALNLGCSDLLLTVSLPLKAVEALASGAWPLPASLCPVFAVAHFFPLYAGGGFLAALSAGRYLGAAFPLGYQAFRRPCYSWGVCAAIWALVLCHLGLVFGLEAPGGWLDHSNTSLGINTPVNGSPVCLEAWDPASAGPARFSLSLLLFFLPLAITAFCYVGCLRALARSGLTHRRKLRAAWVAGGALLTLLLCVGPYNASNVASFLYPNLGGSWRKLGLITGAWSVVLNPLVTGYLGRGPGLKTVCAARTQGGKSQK
# [2] = biological target: T1, Free fatty acid receptor 1; experiment: Agonist activity at GPR40 expressed in CHO cells assessed as intrinsic efficacy after 20 seconds by aequorin bioluminescence assay in presence of 0.1 % human serum relative to AM-1638; assay type: functional, cell-based
# [3] = biological target: T1, Free fatty acid receptor 1; experiment: Agonist activity at GPR40 expressed in CHO cells after 20 seconds by aequorin bioluminescence assay in presence of 100 % human serum; assay type: functional, cell-based
# [4] = Clearance in mouse at 5 mg/kg, po and 1 mg/kg, iv; assay type: ADME, organism-based; settings: in vivo
# [5] = Cmax in mouse at 5 mg/kg, po; assay type: ADME, organism-based; set-up: dose 5 mg/kg, route oral; settings: in vivo
# [6] = Tmax in mouse at 5 mg/kg, po and 1 mg/kg, iv; assay type: ADME, organism-based; settings: in vivo
# Mus musculus [7] = experiment: Antidiabetic activity in DIO BDF mouse model assessed as reduction in blood glucose-challenge excursion at 60 mg/kg, po administered 1 hr prior glucose-challenge challenge measured after 1 hr by OGTT ( Rvb = 462 mg/dl ); assay type: functional
# Mus musculus [8] = experiment: Antidiabetic activity in DIO BDF mouse model assessed as increase in insulin AUC at 60 mg/kg, po administered 1 hr prior glucose-challenge challenge measured after 1 hr by ELISA; assay type: functional, organism-based; set-up: dose 60 mg/kg
# Mus musculus [9] = experiment: Antidiabetic activity in DIO BDF mouse model assessed as increase in plasma insulin level at 60 mg/kg, po administered 1 hr prior glucose-challenge challenge measured after 1 hr by ELISA; assay type: functional, organism-based; set-up: dose 60 mg/kg
# Mus musculus [10] = experiment: Antidiabetic activity in DIO BDF mouse model assessed as improvement in glucose-challenge AUC(0 to 60 mins) at 60 mg/kg, po administered 1 hr prior glucose-challenge challenge measured after 1 hr by OGTT; assay type: functional
# [11] = Oral bioavailability in cynomolgus monkey at 2 mg/kg; assay type: ADME, organism-based, Macaca fascicularis; settings: in vivo
# [12] = Half life in cynomolgus monkey at 0.5 mg/kg, iv; assay type: ADME, organism-based, Macaca fascicularis; set-up: dose 0.5 mg/kg, route intravenous; settings: in vivo
# [13] = Clearance in cynomolgus monkey at 2 mg/kg, po and 0.5 mg/kg, iv; assay type: ADME, organism-based, Macaca fascicularis; settings: in vivo
# [14] = Tmax in cynomolgus monkey at 2 mg/kg, po and 0.5 mg/kg, iv; assay type: ADME, organism-based, Macaca fascicularis; settings: in vivo
# [15] = Cmax in cynomolgus monkey at 2 mg/kg, po; assay type: ADME, organism-based, Macaca fascicularis; set-up: dose 2 mg/kg, route oral; settings: in vivo
# [16] = Oral bioavailability in rat at 2 mg/kg; assay type: ADME, organism-based; settings: in vivo
# [17] = Half life in rat at 0.5 mg/kg, iv; assay type: ADME, organism-based; set-up: dose 0.5 mg/kg, route intravenous; settings: in vivo
# [18] = Clearance in rat at 2 mg/kg, po and 0.5 mg/kg, iv; assay type: ADME, organism-based; settings: in vivo
# [19] = Oral bioavailability in mouse at 5 mg/kg; assay type: ADME, organism-based; settings: in vivo
# [20] = Cmax in rat at 2 mg/kg, po; assay type: ADME, organism-based; set-up: dose 2 mg/kg, route oral; settings: in vivo
# [21] = Tmax in rat at 2 mg/kg, po and 0.5 mg/kg, iv; assay type: ADME, organism-based; settings: in vivo
# [22] = Half life in mouse at 1 mg/kg, iv; assay type: ADME, organism-based; set-up: dose 1 mg/kg, route intravenous; settings: in vivo
SMILES,EC50 [1],Efficacy [2],other results
CC#CC(CC(=O)O)c1ccc(OCc2ccc(-c3ccccc3)cc2)cc1 (racemic),7700 nM,105%,–
COc1ccc(F)c(-c2ccc(COc3cccc([C@@H](CC(=O)O)C(C)C)c3)cc2C(C)(C)C)c1,2200 nM,86%,–
COc1ccc(F)c(-c2ccc(COc3cccc([C@@H](CC(=O)O)C4CC4)c3)cc2C2=CCCC2(C)C)c1,–,–,clearance [4]: 3 mL/min/kg; EC50 [3]: 710 nM; Cmax [5]: 14 µM; Tmax [6]: 1 h; Activity (Mus musculus [7]): 204 mg/dL; Activity (Mus musculus [8]): Active; Activity (Mus musculus [9]): Active; Activity (Mus musculus [10]): 46%; bioavailability [11]: 71%; half-life [12]: 2.1 h; clearance [13]: 13.5 mL/min/kg; Tmax [14]: 2 h; Cmax [15]: 5.1 µM; bioavailability [16]: 72%; half-life [17]: 1.8 h; clearance [18]: 15.2 mL/min/kg; bioavailability [19]: > 100%; Cmax [20]: 3.6 µM; Tmax [21]: 3.5 h; half-life [22]: 2 h
CC#CC(CC(=O)O)c1ccc(OCc2ccc(-c3cccc(OC)c3)cc2)cc1 (racemic),2300 nM,98%,–
CC#C[C@H](CC(=O)O)c1ccc(OCc2ccc(-c3cccc(OC)c3)cc2)cc1,4000 nM,99%,–
CC/C=C\C/C=C\C/C=C\C/C=C\C/C=C\C/C=C\CCC(=O)O [DOCONEXENT],36000 nM,67%,–
COc1ccc(F)c(-c2ccc(COc3cccc([C@@H](CC(=O)O)C4CCCCC4)c3)cc2C(C)(C)C)c1,2100 nM,41%,–
CC#C[C@H](CC(=O)O)c1ccc(OCc2ccc(-c3cc(OC)ccc3F)cc2)cc1,2300 nM,97%,–
CC#C[C@@H](CC(=O)O)c1ccc(OCc2cccc(-c3ccc(C(F)(F)F)cc3)c2)cc1,–,–,Activity (Mus musculus [7]): 317 mg/dL; Activity (Mus musculus [9]): inactive; Activity (Mus musculus [10]): 34%

# More lines, main results first:
EC50 [1],Efficacy [2],SMILES,other results
690 nM,94%,CCC[C@H](CC(=O)O)c1cccc(OCc2ccc(-c3cc(OC)ccc3F)c(C(C)(C)C)c2)c1,–
370 nM,103%,COc1ccc(F)c(-c2ccc(COc3cccc([C@@H](CC(=O)O)C4CC4)c3)cc2C(C)(C)C)c1,EC50 [3]: 1900 nM
770 nM,107%,COc1ccc(F)c(-c2ccc(COc3cccc([C@H](C)CC(=O)O)c3)cc2C(C)(C)C)c1,–
900 nM,100%,COc1ccc(F)c(-c2ccc(COc3cccc(CCC(=O)O)c3)cc2C(C)(C)C)c1,–
1200 nM,80%,COc1ccc(F)c(-c2ccc(COc3cccc([C@@H](CC(=O)O)c4ccccc4)c3)cc2C(C)(C)C)c1,–
420 nM,106%,COc1ccc(F)c(-c2ccc(COc3cccc([C@@H](CC(=O)O)C4CCC4)c3)cc2C(C)(C)C)c1,–
1200 nM,104%,COc1ccc(F)c(-c2ccc(COc3cccc(CCC(=O)O)c3)cc2)c1,–
1900 nM,96%,COc1ccc(F)c(-c2ccc(COc3ccc(CCC(=O)O)cc3)cc2)c1,–
2100 nM,111%,COc1ccc(F)c(-c2ccc(COc3cccc([C@@H](CC(=O)O)C(F)(F)F)c3)cc2C(C)(C)C)c1,–
1310 nM,59%,COc1ccc(F)c(-c2ccc(COc3cccc([C@@H](CC(=O)O)C4CCCC4)c3)cc2C(C)(C)C)c1,–
650 nM,47%,CC#C[C@@H](CC(=O)O)c1ccc(OCc2ccc(-c3cccc(OC)c3)cc2)cc1,–
1100 nM,76%,COc1ccc(F)c(-c2ccc(COc3cccc([C@H](CC(=O)O)C4CC4)c3)cc2C2=CCCC2(C)C)c1,EC50 [3]: 34000 nM
680 nM,110%,CC[C@H](CC(=O)O)c1cccc(OCc2ccc(-c3cc(OC)ccc3F)c(C(C)(C)C)c2)c1,–
480 nM,107%,COc1ccc(F)c(-c2ccc(COc3cccc([C@@H](CC(=O)O)C4CC4)c3)cc2)c1,EC50 [3]: 38000 nM
